Data published in patent US9902713B2, “Neuroprotective compounds and use thereof” (BOARD OF REGENTS OF THE UNIVERSITY OF TEXAS SYSTEM, priority 2013, dated 2018).

Columns and labels:
[1] = tested on: newborn hippocampal neurons; experiment: In vivo neuroprotection assay: BrdU+ newborn hippocampal neurons; set-up: species or system mice; details: for # cell (E6)/mm^3 (number of BrdU+ cells): in vivo neuroprotection assay, Table 2
Protocol: Results. Our most robust assay involves monitoring neuroprotection of newborn hippocampal neurons in mice because this assay gives a simultaneous readout of efficacy, acute toxicity and cell permeability. For this reason, all analogs of P7C3 were evaluated initially by infusing them directly into the left lateral ventricle of environmentally-deprived^ix live mice using a subcutaneously implanted osmotic minipump. Compounds were delivered intracerebroventricularly (ICV) over a 7 day period at a concentration of 10 μM (12 μL/d).^x Coincident with ICV administration of drug, mice were dosed daily with the thymidine analog bromodeoxyuridine (BrdU, IP, 50 mg/kg) to mark newly born hippocampal neural precursor cells. At the end of the 1 week dosing, animals were sacrificed and transcardially perfused. Brain slices were stained with antibodies to BrdU, and the number of surviving neural precursor cells was quantified by counting the number of BrdU+ cells in the hippocampal dentate gyrus. To avoid complications arising from the surgical implantation of the pump, we quantified neurogenesis in the hemisphere opposite to compound infusion. Finally, to obtain consistent data across many animals, the number of BrdU+ cells was normalized to the volume of the dentate gyrus.
In Vivo Neuroprotection Assay. Test compounds were evaluated as described previously.^2 Compounds were infused intracerebroventricularly (i.c.v.) into the left lateral ventricle of four adult (12 week old) wild-type C57BL/J6 mice by means of surgically implanted Alzet osmotic minipumps that delivered solution into animals at a constant rate of 0.5 μl/hour for 7 days. Alternatively, compounds were administered intraperitoneally twice daily. Bromodeoxyuridine (BrdU) was injected intraperitoneally at 50 mg/kg/day for six days during pump infusion. Twenty-four hours after the final BrdU administration, mice were sacrificed by transcardial perfusion with 4% paraformaldehyde at pH 7.4, and their brains were processed for immunohistochemical detection of incorporated BrdU in the SGZ. Dissected brains were immersed in 4% paraformaldehyde overnight at 4° C., then cryoprotected in sucrose before being sectioned into 40 μm thick free-floating sections. Unmasking of BrdU antigen was achieved through incubating tissue sections for two hours in 50% formamide/2×SSC at 65° C., followed by a five minute wash in 2×SSC and subsequent incubation for thirty minutes in 2M HCl at 37° C. Sections were processed for immunohistochemical staining with mouse monoclonal anti-BrdU (1:100). The number of BrdU+ cells in the entire dentate gyrus SGZ in the contralateral hemisphere (opposite side of surgically implanted pump) was quantified by counting BrdU+ cells within the SGZ and dentate gyrus in every fifth section throughout the entire hippocampus and then normalizing for dentate gyrus volume.

[2] = tested on: newborn hippocampal neurons; details: previously reported; cited from earlier work
[3] = tested on: dopaminergic neurons within the substantia nigra; details: previously reported; cited from earlier work
[4] = tested on: motor neurons in the spinal cord; details: previously reported; cited from earlier work
70 kD polypeptide = experiment: Photo-crosslinking of 70 kD polypeptide and competition; assay type: binding; details: FIG. 13
From the text: Note that non-specific, crosslinked bands are not competed by the “A20” variant, but that crosslinking of the 70 kD band was competed.

Structure (SMILES)	# cell (E6)/mm^3 (number of BrdU+ cells) [1]	increase in the number of BrdU+ cells compared to vehicle ([1]; ICV, 1 week, FIG. 1) [%]	other results
OC(CNc1ccccc1)Cn1c2ccc(Br)cc2c2cc(Br)ccc21 (stereo not shown) [P7C3, 1-(3,6-dibromo-9H-carbazol-9-yl)-3-(phenylamino)propan-2-ol]	30 (E6)/mm^3	–	activity in the in vivo hippocampal neuroprotection assay (previous studies) [2]: approximately doubled; protection of substantia nigra neurons from MPTP (earlier report) [3]: protect neurons in the substantia nigra; motor neuron cell death in the spinal cord [4]: minimize motor neuron cell death
O=C(CCCC[C@@H]1SC[C@@H]2NC(=O)N[C@@H]21)NCCOCCOCCOCCn1cc(COc2ccc(OCC(O)Cn3c4ccc(Br)cc4c4cc(Br)ccc43)cc2)nn1 (stereo partly shown) [P7C3-S318]	20.8 (E6)/mm^3	–	–
C#CCOc1ccc(C(=O)c2ccc(NCC(O)Cn3c4ccc(Br)cc4c4cc(Br)ccc43)cc2)cc1 (stereo not shown) [P7C3-S325]	30.6 (E6)/mm^3	–	–
C#CCOc1ccc(C(=O)c2cccc(NCC(F)Cn3c4ccc(Br)cc4c4cc(Br)ccc43)c2)cc1 (stereo not shown) [P7C3-S326]	25 (E6)/mm^3	–	photo-crosslinking products (70 kD polypeptide): photo-crosslinking of 70 kD polypeptide
OC(CNc1ccccn1)Cn1c2ccc(Br)cc2c2cc(Br)ccc21 (stereo not shown) [compound 1, 1-(3,6-dibromo-9H-carbazol-9-yl)-3-(pyridin-2-ylamino)propan-2-ol]	–	–	activity in the in vivo hippocampal neuroprotection assay (previous studies) [2]: maintaining activity
[N-]=[N+]=NCC(F)Cn1c2ccc(Br)cc2c2cc(Br)ccc21 (stereo not shown) [compound 9, 9-(3-azido-2-fluoropropyl)-3,6-dibromo-9H-carbazole]	–	–	number of surviving newborn hippocampal neurons ([1]; ICV, 1 week, FIG. 1): inactive
NCC(F)Cn1c2ccc(Br)cc2c2cc(Br)ccc21 (stereo not shown) [compound 10, 3-(3,6-dibromo-9H-carbazol-9-yl)-2-fluoropropan-1-amine]	–	30	–
NCC(O)Cn1c2ccc(Br)cc2c2cc(Br)ccc21 (stereo not shown) [compound 14, 1-amino-3-(3,6-dibromo-9H-carbazol-9-yl)propan-2-ol]	–	30	–
COc1cccc(NCC(O)Cn2c3ccc(Br)cc3c3cc(Br)ccc32)n1 (stereo not shown) [compound 15, 1-(3,6-dibromo-9H-carbazol-9-yl)-3-((6-methoxypyridin-2-yl)amino)propan-2-ol]	–	30	–
